Results as given in US20260317324A1, “BIFUNCTIONAL COMPOUNDS FOR DEGRADING BRAF VIA UBIQUITIN PROTEOSOME PATHWAY” (Nurix Therapeutics, Inc., priority 2023, published 2026).

Target: T1, BRAF V600E (Homo sapiens, UniProt P15056, V600E)
T1 construct: endogenous C-terminal HiBiT fusion tag on BRAF V600E allele; endogenous in cells; host or cells: A375 clone 1F10 (CRISPR-Cas9 knock-in of the HiBiT tag; parental A375 from ATCC)
Test: BRAF HiBiT degradation assay, C-terminal HiBiT-tagged BRAF V600E A375 cells (clone 1F10), Nano-Glo HiBiT Lytic assay
Assay type: cell-based
Conditions: for Dmax: A-375
Description: An A375 cell line expressing a homozygous V600E mutation was purchased from ATCC (Manassas, VA, USA). An A375 clone 1F10 cell line with an endogenous C-terminal HiBiT fusion tag on BRAF V600E allele was generated internally using CRISPR-Cas9 technology and cultured in DMEM, high glucose supplemented with 10% FBS and 1× GlutaMAX. A HCT-116 BRAF−/− cell line overexpressing the C-terminal HiBiT-tagged G466V, G469A, and D594G mutants were generated by lentiviral transduction, externally at Biosettia Inc (San Diego, CA, USA). The stably transfected cells were cultured in RPMI media supplemented with 10% FBS, 1× GlutaMAX, and 0.25 μg/ml puromycin. DMEM medium, RPMI 1640 medium, GlutaMAX, fetal bovine serum (FBS), and puromycin were purchased from Gibco (Grand Island, NY, USA). HCT-116 BRAF−/− cells were purchased from Horizon Discovery (Waterbeach, UK).
The C-terminal HiBiT tagged BRAF A375 cells (monoclonal cell line, cell clone 1F10) were seeded at a density of 10,000 cells/well in 30 μL media (DMEM, high glucose supplemented with 10% FBS and 1× GlutaMAX) in white opaque 384-well plates (Corning #3570) from column 1 to column 23. The wildtype A375 cells were seeded in column 24 at the same cell density in 30 μL media. Cells were incubated at 37° C. with 5% CO2 for 24 h.
Intermediate compound dilution series (5-point, ranging from 5 mM to 0.5 μM, 10-fold dilutions in DMSO) were prepared in a source plate (Beckman Coulter cat. no. 001-16128). Final compound dilution series (11-point, ranging from 1 μM to 0.01 nM, half-log dilutions in DMSO) were stamped into the assay plate (Corning #3570, column 1-11 and 12-22) using the Echo Acoustic Liquid Handler (Beckman Coulter). Each compound was plated in duplicate, and the total volume of compound DMSO solution was 60 nL/well (0.2% final DMSO concentration). DMSO was included in wells A23-L23 and A24-L24. The DMSO-treated HiBiT-tagged samples served as Negative Control (NC) and the DMSO-treated wildtype samples served as Background Control (BC) for the HiBiT assay.
HiBiT signal was measured by a Nano-Glo HiBiT Lytic assay (Promega cat. no. N3050). HiBiT lytic detection reagent (Nano-Glo HiBiT Lytic Buffer with 1:50 Nano-Glo HiBiT Lytic Substrate and 1:100 LgBiT Protein, 40 μL) was added using Bravo. The mixture was incubated at room temperature, in the dark, and with gentle shaking for 10 min. Luminesce units (LU) were read on an EnVision plate reader 2105 (Perkin Elmer).
Percent protein remaining and viability remaining per sample were calculated as follows: […]
% Protein remaining values were plotted as a function of compound concentration. XC50 (DC50) values were determined by fitting curves using the following equation:
For the HiBiT degradation assay, the key parameters reported include: • The dose of compound that produces 50% degradation (DC50 at 50%): • DC50 at 50%: the Fitted X value (Conc.) at Y=50 (response) • Observed Dmax (Obs. Dmax) is the percentage protein degraded at maximal compound effect relative to DMSO-treated control: […]

[1] = A375 (BRAF V600E), DC50 at 50%: fitted conc. at Y=50
[2] = A375 (BRAF V600E), percentage protein degraded at maximal compound effect relative to DMSO

T1 sequence (P15056 whole entry V600E, the tested form may be a part): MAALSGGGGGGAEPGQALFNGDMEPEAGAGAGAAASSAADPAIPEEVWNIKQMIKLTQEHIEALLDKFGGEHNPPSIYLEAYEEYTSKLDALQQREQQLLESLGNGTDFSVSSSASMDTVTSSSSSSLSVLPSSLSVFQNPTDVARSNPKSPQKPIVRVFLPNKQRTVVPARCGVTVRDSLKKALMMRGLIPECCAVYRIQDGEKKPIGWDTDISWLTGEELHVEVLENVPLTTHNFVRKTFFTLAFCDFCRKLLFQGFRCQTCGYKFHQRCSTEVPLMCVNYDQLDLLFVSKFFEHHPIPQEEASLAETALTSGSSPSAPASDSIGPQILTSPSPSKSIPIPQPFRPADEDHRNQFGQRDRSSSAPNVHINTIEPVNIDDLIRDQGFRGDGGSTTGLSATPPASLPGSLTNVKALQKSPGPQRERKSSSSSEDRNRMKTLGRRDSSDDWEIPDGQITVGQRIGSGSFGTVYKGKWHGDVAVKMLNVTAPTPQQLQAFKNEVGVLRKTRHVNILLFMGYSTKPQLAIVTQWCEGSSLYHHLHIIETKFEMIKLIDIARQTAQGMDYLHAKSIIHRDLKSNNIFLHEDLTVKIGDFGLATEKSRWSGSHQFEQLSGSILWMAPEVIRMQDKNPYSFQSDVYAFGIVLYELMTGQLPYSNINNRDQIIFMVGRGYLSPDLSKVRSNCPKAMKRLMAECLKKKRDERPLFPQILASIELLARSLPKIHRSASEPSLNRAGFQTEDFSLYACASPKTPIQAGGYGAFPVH

Row | Compound | DC50 (A375 (BRAF V600E, Class 1), DC50 at 50% degradation) [nM] | Dmax (A375 (BRAF V600E, Class 1), observed Dmax, % protein degraded relative to DMSO control) [%] | DC50 [1] [nM] | Dmax [2] [%]
1 | O=C1CC[C@H](c2ccc(N3CCC(CN4CCN(c5cnc(-n6cc(-c7cc(F)cc(NS(=O)(=O)N8CCCC8)c7F)c(-c7ccncc7)n6)nc5)CC4)CC3)cc2)C(=O)N1 [Compound 342, N-{3-[1-(5-{4-[(1-{4-[(3R)-2,6-dioxopiperidin-3-yl]phenyl}piperidin-4-yl)methyl]piperazin-1-yl}pyrimidin-2-yl)-3-(pyridin-4-yl)-1H-pyrazol-4-yl]-2,5-difluorophenyl}pyrrolidine-1-sulfonamide] | < 10 | > 70 | – | –
2 | CCCS(=O)(=O)Nc1cccc(-c2nc(C3CCN(C(=O)CN4CCC5(CC4)CN(c4ccc6c(c4)C(=O)N(C4CCC(=O)NC4=O)C6=O)C5)CC3)sc2-c2ccnc(N)n2)c1F (racemic) [Compound 239, Rac-N-{3-[5-(2-aminopyrimidin-4-yl)-2-{1-[2-(2-{2-[(3R)-2,6-dioxopiperidin-3-yl]-1,3-dioxo-2,3-dihydro-1H-isoindol-5-yl}-2,7-diazaspiro[3.5]nonan-7-yl)acetyl]piperidin-4-yl}-1,3-thiazol-4-yl]-2-fluorophenyl}propane-1-sulfonamide] | – | – | < 10 | > 70
3 | CCCS(=O)(=O)Nc1cccc(-c2nc(C3CCC4(CC3)CCN(C(=O)CN3CCN(CCCc5cccc6c5C(=O)N(C5CCC(=O)NC5=O)C6=O)CC3)CC4)sc2-c2ccnc(N)n2)c1F (racemic) [Compound 229, Rac-N-{3-[5-(2-aminopyrimidin-4-yl)-2-(3-{2-[4-(3-{2-[(3R)-2,6-dioxopiperidin-3-yl]-1,3-dioxo-2,3-dihydro-1H-isoindol-4-yl}propyl)piperazin-1-yl]acetyl}-3-azaspiro[5.5]undecan-9-yl)-1,3-thiazol-4-yl]-2-fluorophenyl}propane-1-sulfonamide] | – | – | > 500 | 30 to 70
4 | CCCS(=O)(=O)Nc1cccc(-c2nc(C(C)(C)C)sc2-c2ccnc(NC3CC4(C3)CN(CC[C@H]3CCN(c5ccc(C6CCC(=O)NC6=O)cn5)C3)C4)n2)c1F (mixture of isomers) [Compound 172, N-[3-(2-tert-butyl-5-{2-[(2-{2-[(3S)-1-{5-[(3RS)-2,6-dioxopiperidin-3-yl]pyridin-2-yl}pyrrolidin-3-yl]ethyl}-2-azaspiro[3.3]heptan-6-yl)amino]pyrimidin-4-yl}-1,3-thiazol-4-yl)-2-fluorophenyl]propane-1-sulfonamide] | – | – | 50 to 500 | 30 to 70
5 | CCCS(=O)(=O)Nc1cccc(-c2nc(C(C)(C)C)sc2-c2ccnc(Nc3ccc(C4CCN(C(=O)C5CCN(c6cccc7c6n(C)c(=O)n7C6CCC(=O)NC6=O)CC5)CC4)cc3)n2)c1F (racemic) [Compound 161, Rac-N-(3-{2-tert-butyl-5-[2-({4-[1-(1-{1-[(3R)-2,6-dioxopiperidin-3-yl]-3-methyl-2-oxo-2,3-dihydro-1H-1,3-benzodiazol-4-yl}piperidine-4-carbonyl)piperidin-4-yl]phenyl}amino)pyrimidin-4-yl]-1,3-thiazol-4-yl}-2-fluorophenyl)propane-1-sulfonamide] | – | – | 10 to 50 | 30 to 70
6 | CCCS(=O)(=O)Nc1cccc(-c2nc(C(C)(C)C)sc2-c2ccnc(NC3CC4(CCN(CC5CCN(c6ccc([C@H]7CCC(=O)NC7=O)cc6)CC5)CC4)C3)n2)c1F [Compound 133, N-(3-{2-tert-butyl-5-[2-({7-[(1-{4-[(3R)-2,6-dioxopiperidin-3-yl]phenyl}piperidin-4-yl)methyl]-7-azaspiro[3.5]nonan-2-yl}amino)pyrimidin-4-yl]-1,3-thiazol-4-yl}-2-fluorophenyl)propane-1-sulfonamide] | – | – | 10 to 50 | 30 to 70
